Experimental data taken from PubChem BioAssay AID1963961 (Molecular Pharmacology Branch, DTP, NCI, 2024).
pIC50: −log10 of the molar value.

System: K98450-129-R-PDC multicell spheroids, viability
Test: Anticancer human tumor K98450-129-R-PDC patient-derived colon adenocarcinoma cell line growth inhibition [PI3K]
Settings: for pIC50: curve of first compound; for viability, T/C: stronger effect = lower value; active means viability on the fitted dose curve at most 10% of control; inactive means the rest
Method in brief: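 Multi-cell spheroids combine tumor cells with HUVEC and human MSCs, treated with targeted agents alone or with inavolisib, alpelisib, duvelisib or copanlisib. Concentrations fall in half-log steps from at or near clinical Cmax, or from 10 microM where Cmax is unknown; viability read-out.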
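Further: spheroids exposed to agents for seven days before read-out.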

CC1(C)CCC(Nc2ncc(C(F)(F)F)c(-c3c[nH]c4c(P(C)(C)=O)c(C#N)ccc34)n2)CN1 (configuration not stated) + COc1c(OCCCN2CCOCC2)ccc2c3n(c(=NC(=O)c4cnc(N)nc4)nc12)CCN3
5.33: pIC50 (second compound 0.316 µM)
inactive: viability, T/C (second compound 0.00316 µM, first compound 0.0316 µM) 104% | viability, T/C (second compound 0.00316 µM, first compound 0.1 µM) 99.5% | viability, T/C (second compound 0.00316 µM, first compound 0.316 µM) 66.3% | viability, T/C (second compound 0.00316 µM, first compound 1 µM) 60.1% | viability, T/C (second compound 0.00316 µM, first compound 3.16 µM) 60.3% | viability, T/C (second compound 0.00316 µM, first compound 10 µM) 52.9% | viability, T/C (second compound 0.01 µM, first compound 0.0316 µM) 113% | viability, T/C (second compound 0.01 µM, first compound 0.1 µM) 103% | viability, T/C (second compound 0.01 µM, first compound 0.316 µM) 67.3% | viability, T/C (second compound 0.01 µM, first compound 1 µM) 61.6% | viability, T/C (second compound 0.01 µM, first compound 3.16 µM) 67.3% | viability, T/C (second compound 0.01 µM, first compound 10 µM) 48.8% | viability, T/C (second compound 0.0316 µM, first compound 0.0316 µM) 94.6% | viability, T/C (second compound 0.0316 µM, first compound 0.1 µM) 77.5% | viability, T/C (second compound 0.0316 µM, first compound 0.316 µM) 68.5% | viability, T/C (second compound 0.0316 µM, first compound 1 µM) 69.4% | viability, T/C (second compound 0.0316 µM, first compound 3.16 µM) 61.6% | viability, T/C (second compound 0.0316 µM, first compound 10 µM) 42.7% | viability, T/C (second compound 0.1 µM, first compound 0.0316 µM) 79.6% | viability, T/C (second compound 0.1 µM, first compound 0.1 µM) 86.6% | viability, T/C (second compound 0.1 µM, first compound 0.316 µM) 63.7% | viability, T/C (second compound 0.1 µM, first compound 1 µM) 69% | viability, T/C (second compound 0.1 µM, first compound 3.16 µM) 68.7% | viability, T/C (second compound 0.1 µM, first compound 10 µM) 46.1% | viability, T/C (second compound 0.316 µM, first compound 0.0316 µM) 58.3% | viability, T/C (second compound 0.316 µM, first compound 0.1 µM) 64% | viability, T/C (second compound 0.316 µM, first compound 0.316 µM) 59% | viability, T/C (second compound 0.316 µM, first compound 1 µM) 54.7% | viability, T/C (second compound 0.316 µM, first compound 3.16 µM) 57.8% | viability, T/C (second compound 0.316 µM, first compound 10 µM) 37.3% | viability, T/C (second compound 1 µM, first compound 0.0316 µM) 51.6% | viability, T/C (second compound 1 µM, first compound 0.1 µM) 48.9% | viability, T/C (second compound 1 µM, first compound 0.316 µM) 48.8% | viability, T/C (second compound 1 µM, first compound 1 µM) 42.7% | viability, T/C (second compound 1 µM, first compound 3.16 µM) 50.7% | viability, T/C (second compound 1 µM, first compound 10 µM) 27.2%
5.03: pIC50 (second compound 0.1 µM)
< 5.00: pIC50 (second compound 0.00316 µM) | pIC50 (second compound 0.01 µM)
7.50: pIC50 (second compound 1 µM)
5.18: pIC50 (second compound 0.0316 µM)
